# Experimental data: US9066949B2, “Compositions and methods for the treatment of catatonia” (priority 2011, dated 2015)
# Assays:
# [1] = tested on: clinical effects of ketamine, an NMDA receptor antagonist; details: in vivo; cited from earlier work
# [2] = tested on: catatonic features; assay: Bush-Francis Catatonia Rating Scale (BFCRS) assessment of patients before and after treatment; format: in vivo, human
# From the text: This assessment tool, in conjunction with clinical observation, can be used to identify the severity of catatonia and track improvements with medication adjustments. Studies discussed herein focused on subjects in both secure and nonsecure residential settings.
# [3] = on average, subjects with schizophrenic disorders; cited from earlier work
smiles,measurement,setting,value
"Cc1cc2c(s1)Nc1ccccc1N=C2N1CCN(C)CC1 [olanzapine, 2-methyl-4-(4-methyl-1-piperazinyl)-10H-thieno[2,3-b][1,5]benzodiazepine]",effect on the clinical effects of ketamine,[1],reverse the clinical effects of ketamine
Nc1nnc(-c2cccc(Cl)c2Cl)c(N)n1 [lamotrigine],treatment response,"[2]; 10 out of 14 schizophrenic patients with catatonic features, non-secure settings, antipsychotic, lamotrigine, in some cases a benzodiazepine",marked treatment response
same,effect of lamotrigine alone on catatonic features,[2]; administration of lamotrigine alone,reduces catatonic features
same,effect on catatonic features at lowest dose,[2]; as little as 25 mg per day,meaningful reduction in catatonic features
same,effect on catatonic features as the amount of lamotrigine was increased,[2]; in some instances,complete remission of catatonic features
same,subjects who responded,"[2]; of 20 confirmed cases of catatonia in secure residential settings, clozapine monotherapy with subsequent augmentation with lamotrigine",11
same,BFCRS score after treatment,"[2]; one patient, reduced from 14, olanzapine plan later augmented with lamotrigine",0
same,follow up BFCRS score,"[2]; one subject, non-secure setting, original BFCRS score 31, poor responder to clozapine and lorazepam, after augmentation with lamotrigine",0
same,BFCRS score after treatment,"[2]; one subject, secure residential setting, dropped from 17, 3 weeks after starting the combination therapy",11
same,response at full dosage,"[2]; titrated to a full dosage of 200 mg twice per day, paired with an antipsychotic",maximal responses
same,effect on the clinical effects of ketamine,[1],reverse the clinical effects of ketamine
Cc1nc2n(c(=O)c1CCN1CCC(c3noc4cc(F)ccc34)CC1)CCCC2 [risperidone],effect on the clinical effects of ketamine,[1],do not impact the effects of ketamine
O=C(CCCN1CCC(O)(c2ccc(Cl)cc2)CC1)c1ccc(F)cc1 [haloperidol],effect on the clinical effects of ketamine,[1],do not impact the effects of ketamine
"CN1CCN(C2=Nc3cc(Cl)ccc3Nc3ccccc32)CC1 [clozapine, 8-chloro-11-(4-methylpiperazin-1-yl)-5H-dibenzo[b,e][1,4]diazepine]",effect on the clinical effects of ketamine,[1],reverse the clinical effects of ketamine
same,blood levels needed to achieve greater clinical efficacy,[3],≥ 400 ng/dL
